{
  "source": "patent US9289456B2",
  "about": "(priority 2010, dated 2016)",
  "key": {"Flotillin-1": {"test_system": "Flotillin-1", "assay": "cells", "type": "cell-based, human"}, "MxA": {"test_system": "MxA", "type": "cell-based, human", "details": "24 hrs"}, "VSV-GFP [1]": {"test_system": "VSV-GFP", "assay": "microbe, parasite or virus in culture", "type": "cell-based, Vesicular Stomatitis Virus"}, "VSV-GFP [2]": {"test_system": "VSV-GFP", "type": "cell-based, Vesicular Stomatitis Virus"}, "Nup98": {"test_system": "Nup98", "assay": "cells", "type": "cell-based", "details": "Homo sapiens, HeLa, 24 hrs, read-out: Nup98 protein level, % of control"}, "Rae1": {"test_system": "Rae1", "assay": "cells", "type": "cell-based", "details": "Homo sapiens, HeLa, 24 hrs, read-out: Rae1 protein level, % of control"}},
  "note": "“And” between values parts separate entries of the source, which are not always exact repeats. Equal entries are not always repeated. Where two headings read alike, the source gives them in different places. Marks after values point to notes of the source that are not given here.",
  "data": [
    {"molecule": "CC[C@H](C)C(=O)O[C@H]1C[C@@H](C)C=C2C=C[C@H](C)[C@H](CC[C@@H]3C[C@@H](O)CC(=O)O3)[C@H]21", "note": "[lovastatin]", "values": [
      {"measurement": "Cell survival", "setting": "HeLa cells", "result": "~30", "unit": "%"},
      {"measurement": "Toxicity to HeLa cells", "setting": "HeLa cells", "result": "highly toxic"}
    ]},
    {"molecule": "CC[C@H](C)C(=O)O[C@H]1C[C@H](O)C=C2C=C[C@H](C)[C@H](CC[C@@H](O)C[C@@H](O)CC(=O)O)[C@H]21", "note": "[pravastatin]", "values": [
      {"measurement": "Cell death rate, slope d", "setting": "HeLa cells", "result": "−1.20", "unit": "% cells/μM Prava"},
      {"measurement": "Cell death rate, slope c", "setting": "HeLa cells; human", "result": "−1.78", "unit": "% cells/μM Prava"}
    ]},
    {"molecule": "CCC(C)(C)C(=O)O[C@H]1C[C@@H](C)C=C2C=C[C@H](C)[C@H](CC[C@@H]3C[C@@H](O)CC(=O)O3)[C@H]21", "note": "[simvastatin]", "values": [
      {"measurement": "Cell death rate (Δ% cell death per ΔμM), slope b", "setting": "HeLa cells", "result": "−2.61", "unit": "% cells/μM Sim"},
      {"measurement": "Slope a (m), relative trend of cell survival, FIG. 18", "setting": "HeLa cells; 0.125-2 μM 8 hrs", "result": "−6.54"},
      {"measurement": "Slope b (m), relative trend of cell survival, FIG. 18", "setting": "HeLa cells; 0.125-2 μM 8 hrs", "result": "−10.46"},
      {"measurement": "Cell death rate (Δ% cell death per ΔμM), slope a", "setting": "HeLa cells; human", "result": "−1.63", "unit": "% cells/μM Sim"},
      {"measurement": "Flotillin-1 levels, % of control", "setting": "Flotillin-1; 0.125 µM", "result": "~160% and ~100%"},
      {"measurement": "Flotillin-1 levels, % of control", "setting": "Flotillin-1; 0.5 µM", "result": "~90", "unit": "%"},
      {"measurement": "activity at 0.5 µM", "setting": "Flotillin-1; Homo sapiens, HeLa, read-out: Flotillin-1 levels, % of control", "result": "~75", "unit": "%"},
      {"measurement": "MxA protein levels", "setting": "MxA; 0.125 μM", "result": "~400", "unit": "%"},
      {"measurement": "MxA protein levels", "setting": "MxA; 0.5 μM", "result": 650, "unit": "%"},
      {"measurement": "MxA protein levels", "setting": "MxA; 2.0 μM", "result": 150, "unit": "%"},
      {"measurement": "Decrease of pfu in log-units", "setting": "VSV-GFP [1]", "result": 2, "unit": "log-units"},
      {"measurement": "Fold lower pfu than control VSV-infected cells", "setting": "VSV-GFP [1]", "result": 660, "unit": "fold"},
      {"measurement": "Pfu values (viral titer of supernatant)", "setting": "VSV-GFP [1]", "result": "1.80×10^4 (+/−3×10^3) pfu/ml"},
      {"measurement": "IC50", "setting": "VSV-GFP [1]; Vesicular stomatitis virus, HeLa, read-out: Concentration needed for reduction of pfu values to half of control (IC50)", "result": 278, "unit": "nM"},
      {"measurement": "Pretreatment time required to inhibit VSV protein levels", "setting": "VSV-GFP [2]", "result": "≥ 4", "unit": "h"},
      {"measurement": "activity at 0.125 µM", "setting": "Nup98; 0.125 μM", "result": 180, "unit": "%"},
      {"measurement": "activity at 0.5 µM", "setting": "Nup98; 0.5 μM", "result": 240, "unit": "%"},
      {"measurement": "activity at 2 µM", "setting": "Nup98; 2.0 μM", "result": 260, "unit": "%"},
      {"measurement": "activity at 0.125 µM", "setting": "Rae1; 0.125 μM", "result": 196, "unit": "%"},
      {"measurement": "activity at 0.5 µM", "setting": "Rae1; 0.5 μM", "result": 310, "unit": "%"},
      {"measurement": "activity at 2 µM", "setting": "Rae1; 2.0 μM", "result": 390, "unit": "%"}
    ]},
    {"molecule": "Methyl-β-cyclodextrin [MβCD]", "values": [
      {"measurement": "Cell survival", "setting": "HeLa cells", "result": "~20", "unit": "%"},
      {"measurement": "Toxicity to HeLa cells", "setting": "HeLa cells", "result": "highly toxic"},
      {"measurement": "Attenuation of viral titers by pretreatment", "setting": "VSV-GFP [1]", "result": "attenuated"},
      {"measurement": "Fold decrease of VSV titers", "setting": "VSV-GFP [1]", "result": 160, "unit": "fold"},
      {"measurement": "VSV titer after pretreatment", "setting": "VSV-GFP [1]", "result": "5.25×10^4 (+/1−5.5×10^3) pfu/ml"},
      {"measurement": "VSV G protein level, % of VSV control infection", "setting": "VSV-GFP [2]", "result": "150% and 195% and 247% and 182% and 210%"},
      {"measurement": "VSV N/P protein level, % of VSV control infection", "setting": "VSV-GFP [2]", "result": "153% and 220% and 150% and 275% and 147% and 162%"}
    ]}
  ]
}
